Consider twelve compounds from patent US12391698B2, “Substituted piperidines and piperazines and methods for the treatment of CNS disorders” (SUVEN LIFE SCIENCES LIMITED, priority 2022, dated 2025).

Structures can show the parent of a compound that is named as a salt. Where two headings read alike, the source gives them in different places. Some results are limits rather than exact numbers.

In assay [1] the target is T1, cloned human 5-HT1A receptor (Homo sapiens, UniProt P08908).
T1 construct: expressed in transfected cells; host or cells: HEK293-EBNA
T1 sequence (P08908 1-422): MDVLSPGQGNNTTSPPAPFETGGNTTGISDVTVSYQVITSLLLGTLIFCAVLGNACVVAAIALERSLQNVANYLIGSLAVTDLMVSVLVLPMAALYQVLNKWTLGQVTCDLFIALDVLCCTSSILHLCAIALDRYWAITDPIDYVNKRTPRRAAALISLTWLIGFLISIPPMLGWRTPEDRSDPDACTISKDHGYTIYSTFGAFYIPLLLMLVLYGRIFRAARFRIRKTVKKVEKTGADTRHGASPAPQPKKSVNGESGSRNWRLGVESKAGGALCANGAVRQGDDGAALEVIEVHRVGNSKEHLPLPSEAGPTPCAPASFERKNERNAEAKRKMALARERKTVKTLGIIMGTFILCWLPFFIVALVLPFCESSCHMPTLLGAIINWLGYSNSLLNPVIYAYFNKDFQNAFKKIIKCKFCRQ
Kind of assay: Determination of Ki at 5-HT1A receptor (radioligand binding, [3H]-8-Hydroxy DPAT). The note with it: HEK293-EBNA recombinant cells; [3H]-8-Hydroxy DPAT 0.8 nM; read-out: Ki h5-HT1A. The method, then:
(§1) Compounds were tested according to the following procedure.
• Receptor source: Recombinant mammalian cells (HEK293-EBNA) • Radioligand: [^3H]-8-Hydroxy DPAT (200 Ci/mmol) • Final ligand concentration: 0.8 nM • Non-specific determinant: 0.1 mM U92016A • Reference compound: U92016A • Positive control: U92016A Incubation Conditions:
Reactions were carried out in buffer with pH 7.4 containing 50 mM Tris-HCl, 0.5 mM EDTA, 10 mM MgSO4, 0.1% Ascorbic acid for 2 h at r.t. The reaction was terminated by rapid vacuum filtration onto the glass fiber filters. Radioactivity trapped onto the filters was determined and compared to the control values in order to ascertain any interactions of the test compound(s) with cloned human 5-HT1A receptor binding site.

For assay [2], the target named is T2, cloned human 5-HT2A receptor (Homo sapiens, UniProt P28223).
T2 construct: expressed in transfected cells; host or cells: CHO-K1
T2 sequence (P28223 whole entry): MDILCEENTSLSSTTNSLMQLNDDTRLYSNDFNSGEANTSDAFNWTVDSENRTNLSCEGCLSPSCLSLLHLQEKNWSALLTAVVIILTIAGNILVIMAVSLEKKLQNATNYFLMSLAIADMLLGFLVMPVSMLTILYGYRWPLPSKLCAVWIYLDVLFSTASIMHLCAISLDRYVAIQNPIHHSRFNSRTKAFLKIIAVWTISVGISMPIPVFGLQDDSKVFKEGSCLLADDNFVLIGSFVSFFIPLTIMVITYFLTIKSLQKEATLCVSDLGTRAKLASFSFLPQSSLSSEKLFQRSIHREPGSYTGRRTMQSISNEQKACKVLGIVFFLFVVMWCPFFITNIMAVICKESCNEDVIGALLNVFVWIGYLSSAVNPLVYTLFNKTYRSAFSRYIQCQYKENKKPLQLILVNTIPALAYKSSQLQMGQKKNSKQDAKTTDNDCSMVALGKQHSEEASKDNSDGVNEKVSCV
Kind of assay: Determination of Ki at 5-HT2A receptor (radioligand binding, [3H]-Ketanserine). The note with it: CHO-K1 recombinant cells; [3H]-Ketanserine 1.25 nM; read-out: Ki h5-HT2A. The method, then:
as §1
• Receptor source: Recombinant mammalian cells (CHO-K1) • Radioligand: [^3H]-Ketanserine (41.9 Ci/mmol) • Final ligand concentration: 1.25 nM • Non-specific determinant: 0.1 mM 1-Napthyl piperazine (1-NP) • Reference compound: 1-Napthyl piperazine (1-NP) • Positive control: 1-Napthyl piperazine (1-NP) Incubation Conditions:
Reactions were carried out in buffer with pH 7.4 containing 50 mM Tris-HCl, 4 mM CaCl2), 0.1% Ascorbic acid for 1 h at r.t. The reaction was terminated by rapid vacuum filtration onto the glass fiber filters. Radioactivity trapped onto the filters was determined and compared to the control values in order to ascertain any interactions of the test compound(s) with cloned human 5-HT2A receptor binding site.

The target of assay [3] is cloned human SERT receptor (Homo sapiens, UniProt P31645). Kind of assay: Determination of Ki at SERT receptor (SPA binding, [3H]-Citalopram). The note with it: HEK293 recombinant cells, [3H]-Citalopram 2 nM, read-out: Ki hSERT. The method, then:
as §1
• Receptor source: Recombinant mammalian cells (HEK293) • Radioligand: [^3H]-Citalopram (80.8 Ci/mmol) • Final ligand concentration: 2 nM • Non-specific determinant: 0.1 mM Venlafaxine • Reference compound: Venlafaxine • Positive control: Venlafaxine Incubation Conditions:
Reactions were carried out in buffer with pH 7.4 containing 50 mM Tris-HCl, 150 mM NaCl, 5 mM KCl and scintillation proximity assay (SPA) beads (0.1 mg/well) for 3 h at r.t. Radioactivity proximal to SPA beads was determined by scintillation proximity assay and compared to the control values in order to ascertain any interactions of the test compound(s) with cloned human SERT receptor binding site.
Reference: Journal of Pharmacology and Experimental Therapeutics, 1987, 242 (1), 364-371.

Assay [4] deals with T3, hD2S (cloned human dopamine D2S receptor) (Homo sapiens, UniProt P14416).
T3 construct: expressed in transfected cells; host or cells: CHO-K1
T3 sequence (P14416 1-414 isoform P14416-2): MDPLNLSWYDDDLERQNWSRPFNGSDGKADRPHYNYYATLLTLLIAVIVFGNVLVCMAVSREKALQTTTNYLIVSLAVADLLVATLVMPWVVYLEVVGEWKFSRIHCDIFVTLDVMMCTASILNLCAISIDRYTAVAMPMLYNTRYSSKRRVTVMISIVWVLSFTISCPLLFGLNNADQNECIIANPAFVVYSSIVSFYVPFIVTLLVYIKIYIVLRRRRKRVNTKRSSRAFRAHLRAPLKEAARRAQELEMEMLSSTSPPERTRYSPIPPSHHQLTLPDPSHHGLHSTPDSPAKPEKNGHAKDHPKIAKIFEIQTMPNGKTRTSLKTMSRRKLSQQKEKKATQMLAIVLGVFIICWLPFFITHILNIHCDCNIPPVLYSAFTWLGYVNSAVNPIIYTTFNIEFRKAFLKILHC
Nature of the assay: Determination of Ki at D2S receptor (radioligand binding, [3H]-Raclopride). The note with it: CHO-K1 recombinant cells; [3H]-Raclopride 4 nM; read-out: Ki hD2S. How it is done:
as §1
• Receptor source: Recombinant mammalian cells (CHO-K1) • Radioligand: [^3H]-Raclopride (80.8 Ci/mmol) • Final ligand concentration: 4 nM • Non-specific determinant: 0.1 mM Haloperidol • Reference compound: Haloperidol • Positive control: Haloperidol Incubation Conditions:
Reactions were carried out in buffer with pH 7.4 containing 50 mM Tris-HCl, 120 mM NaCl, 5 mM KCl, 5 mM MgCl2, 1 mM EDTA for 2 h at r.t. The reaction was terminated by rapid vacuum filtration onto the glass fiber filters. Radioactivity trapped onto the filters was determined and compared to the control values in order to ascertain any interactions of the test compound(s) with cloned human dopamine […] receptor binding site.

Sequence of cloned human SERT receptor (P31645 whole entry): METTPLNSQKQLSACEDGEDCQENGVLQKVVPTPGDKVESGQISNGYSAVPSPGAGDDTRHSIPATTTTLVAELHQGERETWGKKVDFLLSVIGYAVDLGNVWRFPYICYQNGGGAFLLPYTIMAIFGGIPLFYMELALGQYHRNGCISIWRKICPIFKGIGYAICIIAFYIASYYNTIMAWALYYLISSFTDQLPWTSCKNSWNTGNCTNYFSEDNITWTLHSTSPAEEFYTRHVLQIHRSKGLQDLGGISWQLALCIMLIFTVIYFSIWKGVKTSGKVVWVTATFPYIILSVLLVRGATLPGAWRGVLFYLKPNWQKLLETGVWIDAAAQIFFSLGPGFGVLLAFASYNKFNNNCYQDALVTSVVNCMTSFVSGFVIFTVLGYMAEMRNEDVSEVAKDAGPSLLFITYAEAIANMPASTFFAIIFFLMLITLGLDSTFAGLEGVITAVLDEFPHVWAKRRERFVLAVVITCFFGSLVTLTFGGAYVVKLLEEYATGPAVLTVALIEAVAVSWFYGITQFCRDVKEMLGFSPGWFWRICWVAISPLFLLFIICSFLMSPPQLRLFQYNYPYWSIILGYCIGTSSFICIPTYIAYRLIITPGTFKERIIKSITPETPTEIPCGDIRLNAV

By Ki is commonly meant the equilibrium dissociation constant of an inhibitor or competing ligand from its target. `COC(=O)N1CCN2C(=O)N(CCCCN3CCN(c4nsc5ccccc45)CC3)C(=O)C[C@@H]2C1` [Example 33, 7-[4-(4-Benzo[d]isothiazol-3-yl-piperazin-1-yl)-butyl]-6,8-dioxo-octahydro-pyrazino[1,2-c]pyrimidine-2-carboxylic acid methyl ester]: the inhibition constant Ki in assay [1] stood at 0.3 nM; in assay [2], 0.8 nM; in assay [3], 0.0611 µM; in assay [4], 1.7 nM.

In the case of `O=C(OCc1ccccc1)N1CCN2C(=O)N(CCCCN3CCN(c4nsc5ccccc45)CC3)C(=O)C[C@@H]2C1` [Example 20, 7-[4-(4-Benzo[d]isothiazol-3-yl-piperazin-1-yl)-butyl]-6,8-dioxo-octahydro-pyrazino[1,2-c]pyrimidine-2-carboxylic acid benzyl ester fumarate], the Ki in assay [1] is 1.3 nM; in assay [2], 1.1 nM; in assay [3] it was 0.148 µM; in assay [4], 2.7 nM.

With `O=C1C[C@@H]2CCCN2C(=O)N1CCCN1CCC(c2noc3ccccc23)CC1` [Example 44, 2-[3-(4-Benzo[d]isoxazol-3-yl-piperidin-1-yl)-propyl]-tetrahydro-pyrrolo[1,2-c]pyrimidine-1,3-dione, oxalate], the Ki was 531 nM in assay [1], 59.9 nM in assay [2], > 10 µM in assay [3] (cells printed in μM) and 119 nM in assay [4].

On to `O=C1C[C@@H]2CCCN2C(=O)N1CCCCN1CCC(c2c[nH]c3ccc(F)cc23)CC1` [Example 7, 2-{4-[4-(5-Fluoro-1H-indol-3-yl)-piperidin-1-yl]-butyl}-tetrahydro-pyrrolo[1,2-c]pyrimidine-1,3-dione oxalate], for which the inhibition constant Ki in assay [1] stood at 1.8 nM; in assay [2], 49.9 nM; in assay [3], 0.0385 µM; in assay [4], 4.5 nM.

As for `O=C(OCc1ccccc1)N1CCN2C(=O)N(CCCCN3CCC(c4noc5cc(F)ccc45)CC3)C(=O)CC2C1` (stereo not drawn) [Example 22, 7-{4-[4-(6-Fluoro-benzo[d]isoxazol-3-yl)-piperidin-1-yl]-butyl}-6,8-dioxo-octahydro-pyrazino[1,2-c]pyrimidine-2-carboxylic acid benzyl ester fumarate], the Ki in assay [1] stood at 84.1 nM; in assay [2] it was 1.5 nM; in assay [3], 0.279 µM; in assay [4], 2.5 nM.

With `COC(=O)N1CCN2C(=O)N(CCCCN3CCN(c4nsc5ccccc45)CC3)C(=O)CC2C1` (stereo not drawn) [Example 34, 7-[4-(4-Benzo[d]isothiazol-3-yl-piperazin-1-yl)-butyl]-6,8-dioxo-octahydro-pyrazino[1,2-c]pyrimidine-2-carboxylic acid methyl ester fumarate], the Ki worked out at 1.3 nM in assay [1], 0.5 nM in assay [2], 0.152 µM in assay [3] and 2.4 nM in assay [4].

On to `CC(=O)N1CCN2C(=O)N(CCCCN3CCN(c4nsc5ccccc45)CC3)C(=O)C[C@@H]2C1` [Example 37, 2-Acetyl-7-[4-(4-benzo[d]isothiazol-3-yl-piperazin-1-yl)-butyl]-hexahydro-pyrazino[1,2-c]pyrimidine-6,8-dione], for which the Ki came out at 0.3 nM in assay [1], 1.5 nM in assay [2], 1.1 µM in assay [3] and 8.2 nM in assay [4].

On to `O=C1C[C@@H]2CCCN2C(=O)N1CCCCN1CCC(c2noc3ccccc23)CC1` [Example 42, 2-{4-[4-(Benzo[d]isoxazol-3-yl)-piperidin-1-yl]-butyl}-tetrahydro-pyrrolo[1,2-c]pyrimidine-1,3-dione, oxalate], for which the Ki in assay [1] was 8.7 nM; in assay [2] it was 11.6 nM; in assay [3] (cells printed in μM), > 10 µM; in assay [4] it was 37.3 nM.

For `O=C1C[C@@H]2CCCCN2C(=O)N1CCCCN1CCN(c2nsc3ccccc23)CC1` [Example 12, 2-[4-(4-Benzo[d]isothiazol-3-yl-piperazin-1-yl)-butyl]-hexahydro-pyrido[1,2-c]pyrimidine-1,3-dione], the Ki in assay [1] was 0.1 nM; in assay [2], 0.6 nM; in assay [3] it was 0.181 µM; in assay [4], 0.6 nM.

For `COC(=O)N1CCN2C(=O)N(CCCCN3CCC(c4noc5cc(F)ccc45)CC3)C(=O)C[C@@H]2C1` [Example 36, 7-{4-[4-(6-Fluoro-benzo[d]isoxazol-3-yl)-piperidin-1-yl]-butyl}-6,8-dioxo-octahydro-pyrazino[1,2-c]pyrimidine-2-carboxylic acid methyl ester fumarate], the Ki in assay [1] turned out to be 130 nM; in assay [2], 2.2 nM; in assay [3], 1.48 µM; in assay [4], 3.3 nM.

`CC(C)N1CCN2C(=O)N(CCCCN3CCN(c4nsc5ccccc45)CC3)C(=O)C[C@H]2C1` [Example 40, 7-[4-(4-Benzo[d]isothiazol-3-yl-piperazin-1-yl)-butyl]-2-isopropyl-hexahydro-pyrazino[1,2-c]pyrimidine-6,8-dione fumarate]: the Ki in assay [1] was 0.5 nM; in assay [2], 1.6 nM; in assay [3], 1.25 µM; in assay [4], 5 nM.

Consider `O=C1C[C@@H]2CCCCN2C(=O)N1CCCCN1CCC(c2c[nH]c3ccc(F)cc23)CC1` [Example 15, 2-{4-[4-(5-Fluoro-1H-indol-3-yl)-piperidin-1-yl]-butyl}-hexahydro-pyrido[1,2-c]pyrimidine-1,3-dione], for which the Ki in assay [1] stood at 2.2 nM; in assay [2], 53.6 nM; in assay [3] it was 0.0269 µM; in assay [4], 2.9 nM.
